“Also recorded” adds a separate entry of the source.
How the values were obtained:
PCSK9 = assay: ELISA for PCSK9 secreted into medium by MIN6 β-cells; format: cell-based, mouse; details: MIN6, 24 h, different concentrations of Q3G
Description: FIG. 15 a graph illustrating the effect of exposure to Q3G on PCSK9 secretion in MIN6 β-cells. MIN6 cells were incubated for 24 h in the presence of the specified concentration of Q3G. Media were collected and assayed by ELISA for PCSK9 content.
(§1) Mouse insulinoma MIN6 cells were cultured in a 5% CO2-95% air atmosphere at 37° C. in DMEM medium containing 10% heat-inactivated fetal bovine serum, 1 mM Na-pyruvate, 2 mM L-glutamine, 25 mM D-glucose, and 28 μM β-mercaptoethanol. Q3G at a specific final concentration was supplemented to the culture medium and incubation was conducted for a selected length of time. Media were collected, spun at 600 g to sediment suspended cells, supplemented with 0.5 volumes of 3×RIPA-PIC (1×: 50 mM Tris-HCl, pH 8, 150 mM NaCl, 1% NP-40, 0.5% Na-deoxycholate and 0.1% SDS and PIC). Cells were lysed in 1×RIPA-PIC for immuno-blotting, or in RNA extraction buffer for qRT-PCR.
The assays for PCSK9 and insulin were conducted as prescribed by kit manufacturers, using a Thermo Scientific plate reader. For example, PCSK9 levels in conditioned media were measured using the human PCSK9 ELISA kit from Circulex, as specified the manufacturer. […] After 15 min, the reaction was stopped with […] and the absorbance of the reaction mixtures measured by spectrophotometry at 450 nm. […]

MIN6 β-cells = assay: GSIS assay (glucose-stimulated insulin secretion, insulin ELISA); format: cell-based, mouse; details: MIN6, stimulation with 18 mM glucose, 30 min
Description: The assays for PCSK9 and insulin were conducted as prescribed by kit manufacturers, using a Thermo Scientific plate reader. For example, PCSK9 levels in conditioned media were measured using the human PCSK9 ELISA kit from Circulex, as specified the manufacturer. The assay was a sandwich immunoassay using two antibodies (A and B) recognizing different PCSK9 epitopes. Briefly, aliquot of diluted media were overlaid on wells coated with anti-PCSK9 antibody A. After 1-h incubation, the wells were washed, overlaid with a solution of HRP-conjugated anti-PCSK9 antibody B, and incubated for 1 h. They were washed again, and overlaid with a solution of tetra-methylbenzidine as a chromogenic substrate for HRP. After 15 min, the reaction was stopped with […] and the absorbance of the reaction mixtures measured by spectrophotometry at 450 nm. All the steps were performed at room temperature. Standards consisted of recombinant human PCSK9.
Cells were seeded and grown to 80% confluence. Prior to GSIS assay, fresh medium containing 3 mM Glucose and 10% FBS medium (low-glucose medium or LGM) without or with Q3G was substituted and incubation resumed for 6 h to adapt the cells to low glucose. Fresh LGM without or with Q3G was substituted and supplemented or not with glucose to the final concentration of 18 mM. […]

ABCA1 = assay: Immunoblotting for ABCA1 in MIN6 β-cells; format: cell-based, mouse; details: MIN6, Q3G-treated
Description: The corresponding photographs of the immunoblotting results are also shown. MIN6 cells were incubated for 24 h in the presence of 16 μM Q3G. Cell lysates were analyzed by semi-quantitative immunoblotting using different antibodies successively.
as §1
Cell lysates were fractionated by SDS-PAGE and electrophoretically transferred onto a polyvinylidene fluoride membrane. […] The signal was captured on X-ray film and immunoreactive bands analyzed by densitometry on a Syngene's ChemiGenius^2XE Bio Imaging System (Cambridge, Mass.) within the dynamic range of the instrument. […]

HNF-1α = assay: Immunoblotting for HNF-1α in cells exposed to Q3G; format: cell-based; details: cells incubated 24 h with Q3G
Description: FIG. 3 is a graph illustrating hepatocyte nuclear factor la (HNF-1α) expression in cells on exposure to Q3G. Cells were incubated for 24 h in medium containing the indicated concentrations of Q3G. Cells lysates were analyzed by semi-quantitative immunoblotting for the levels of HNF-1α.
(§2) Cell lysates were fractionated by SDS-PAGE and electrophoretically transferred onto a polyvinylidene fluoride membrane. The membrane was incubated with a goat antihuman LDLR, rabbit anti-PCSK9, or rabbit anti-SREBP-2 polyclonal antibody at 1:1000, 1:1500, and 1:200 dilutions, respectively, and then with a HRP-conjugated heterospecific secondary antibody against the primary Igs at a 1:2000 dilution. It was probed for HRP reaction using the Western Lightning Chemiluminescence Reagent Plus a chemiluminescence-based revelation kit. The signal was captured on X-ray film and immunoreactive bands analyzed by densitometry on a Syngene's ChemiGenius^2XE Bio Imaging System (Cambridge, Mass.) within the dynamic range of the instrument. The membrane was stripped and reprobed with the anti-β-actin monoclonal primary antibody at 1:20,000 dilution and HRP-conjugated rabbit anti-mouse IgG secondary antibody at a 1:5000 dilution. The densitometric values of β-actin bands were using for normalization of experimental samples.

LDLR = assay: Semi-quantitative immunoblotting for LDLR protein in Huh7 cell lysates; format: cell-based, human
Description: At passage, Huh7 cells were routinely seeded at sub-confluence (˜10^6 cells/10-cm dish) in Dulbecco's modified Eagle's medium (DMEM) containing 10% fetal bovine serum (FBS) or LPDS (for experiments) and 50 μg/ml gentamycin. They were incubated overnight at 37° C., in a humidified 5% CO2-95% air atmosphere. Cells were treated or not with Q3G at defined concentrations and for defined lengths of time. Media were collected and centrifuged at 200 g for 5 min to sediment suspended cells; supernatants were collected and supplemented with 0.33 volumes of a 3×-concentrated PIC. Cell monolayers were rinsed with ice-cold phosphate-buffered saline (PBS); they were overlaid with […] the RIPA lysis buffer (50 mM Tris-HCl, pH 8, 150 mM NaCl, 1% NP-40, 0.5% Na-deoxycholate and 0.1% SDS) supplemented with 1× PIC. After 20 min in an ice bath, the lysates were centrifuged at 14,000 g and 4° C. for 20 min, and supernatants were collected. Conditioned media and lysates were stored at −20° C. until analysis.
as §2
Huh7 cells, hepatocyte derived cellular carcinoma cells, were incubated for 24 h in medium containing 10% lipoprotein-depleted serum (LPDS) and 0 to 10 μM Q3G. The level of LDLR mRNA was measured by quantitative real-time RT-PCR; that of the LDLR protein by semi-quantitative immunoblotting. Exposure to Q3G increased the intracellular content of LDLR mRNA in a concentration-dependent manner; the increase reached a 2× maximum at 2 μM (P<0.01, relative to no Q3G) (FIG. 3A). The content of the corresponding protein followed a similar pattern, but reached a 4× maximum at 4 μM (P<0.005) (FIG. 3B).
The kinetics of cellular accumulation of LDLR and PCSK9 at 2 μM Q3G was also examined: PCSK9 accumulation in the cells began after a 3-h lag; that of LDLR after 6-h lag (FIG. 6).
Statins induce expression of LDLR and PCSK9. […] We examined whether, at a 5 μM concentration of Q3G, simvastatin at 0.2 and 1 μM could further up regulate LDLR expression in Huh7 cells; and, inversely, whether the flavonol can reduce statin-stimulated PCSK9 secretion secreted by Huh7 cells.

Which results are given for `O=c1c(O[C@@H]2O[C@H](CO)[C@@H](O)[C@H](O)[C@H]2O)c(-c2ccc(O)c(O)c2)oc2cc(O)cc(O)c12` [Q3G, quercetin-3-O-β-D-glucoside]?
PCSK9 in the medium (secretion) (PCSK9): paralleled that of the transcript; also recorded: stimulates; glucose-stimulated insulin secretion, treated versus untreated cells (MIN6 β-cells): comparable; also recorded: without affecting; relative amount of ABCA1 protein compared with mRNA (ABCA1): in concordance with the relative amounts of mRNA; level of HNF-1α (HNF-1α): does not change; lag before LDLR accumulation in the cells (LDLR; Huh7, 2 μM Q3G, time course): 6 h; increase of LDLR protein content (maximum) (LDLR; Huh7, 24 h, 10% LPDS, 0 to 10 μM Q3G, maximum at 4 μM): 4 ×; level of cellular LDLR (LDLR; Huh7, 24 h, co-treatment 5 μM Q3G with simvastatin 0.2 and 1 μM): increased cellular LDLR to the level induced by the flavonol alone; effect of high concentrations on stimulation of LDLR expression (LDLR; Huh7, 24 h, high Q3G concentrations (>20 NM), concentration-dependent): attenuated; also recorded: attenuation

Reference: patent US20150190369A1, “QUERCETIN-3-GLUCOSIDE AND USES THEREOF” (priority 2012, published 2015)
